Results taken from article PMC9324933 (Chemistry (Weinheim an Der Bergstrasse, Germany), 2022).

What was measured:
[1] = N-octanol/water partition coefficient; type: physicochemical; conditions: RP-TLC, MOPS pH 7.4/acetonitrile
[2] = tested on: A2780 cells; test: Viability of A2780 cells; type: cell-based; conditions: read-out: IC50 A2780 cells; human ovarian cancer cells, 48 h, MTT
[3] = tested on: BL‐2 cells; test: Viability of BL-2 cells; type: cell-based; conditions: read-out: IC50 BL‐2 cells; human Burkitt's lymphoma cells, 48 h, MTT
[4] = Redox potentials by cyclic voltammetry and differential pulse voltammetry; type: physicochemical; conditions: redox potential versus ferrocene/ferrocenium (FcH/FcH+); acetonitrile, 23 °C

[Fe+2].c1cc[cH-]c1.c1cc[cH-]c1 [FcH, ferrocene]
LogP [1]: 3.40
IC50 [2]: > 50 µM
IC50 [3]: > 50 µM
E1/2 [4]: 0 mV
